Reference: US12290513B2, “Therapeutic methods and compositions for treating movement disorders” (Vima Therapeutics, Inc., priority 2023, dated 2025)

How the values were obtained:
[1] = biological target: T1, human muscarinic receptor M5 (Homo sapiens, UniProt P08912); assay: Calcium flux assay (FLIPR), CHO cells expressing human M5; format: cell-based; details: agonist mode
T1 construct: expressed in transfected cells
Experimental: (§1) All cells used in the following experiments were clonal populations of Chinese Hamster Ovary (CHO) cells stably expressing the corresponding human muscarinic receptor, except for the M4 cell line, which was a population of CHO cells transiently transfected with the human M4 receptor. Muscarinic agonism and antagonism of each receptor was measured by a quantitative calcium flux assay that is used for multiple classes of G-protein-coupled receptors, or GPCRs, as described elsewhere (e.g., Arkin et al., […], PMID: 22553878). Acetylcholine and atropine were used as positive controls for receptor agonism and antagonism, respectively. The procedure was as follows: • 1. Cells were thawed and cultured in cell culture medium (DMEM/F12 containing 10% FBS, 1× penicillin-streptomycin and 600 μg/ml hygromycin B) at 37° C. in 5% (v/v) CO2. • 2. One day before the assays, cells were detached using TrypLE™ and counted using a cell-counter. Only cells with >85% viability are used for the assay. • 3. […] Plates were read for 160 sec with 1 sec intervals to obtain the data in agonist mode, then kept at 25° C. in the dark for 30 min. • 11. […] Plates were read for 160 sec with 1 sec intervals, thereby measuring the ability for test compounds to antagonize the activation of muscarinic receptors by Ach.

[2] = biological target: human muscarinic receptor M1 (Homo sapiens, UniProt P11229); assay: cell-based
Experimental: (§2) All cells used in the following experiments were clonal populations of Chinese Hamster Ovary (CHO) cells stably expressing the corresponding human muscarinic receptor, except for the M4 cell line, which was a population of CHO cells transiently transfected with the human M4 receptor. […] The procedure was as follows: • 1. Cells were thawed and cultured in cell culture medium (DMEM/F12 containing 10% FBS, 1× penicillin-streptomycin and 600 μg/ml hygromycin B) at 37° C. in 5% (v/v) CO2. • 2. One day before the assays, cells were detached using TrypLE™ and counted using a cell-counter. […] 12,000 cells/well were seeded in 30 μl/well culture medium in a 384-well cell plate and incubated overnight at 37C, 5% (v/v) CO2. • 4. On the assay day, 2× dye solution was prepared following the manual of the FLIPR® Calcium 6 Assay Kit: • i. The dye was diluted with assay buffer (20 mM HEPES in 1× HBSS, PH 7.4); • ii. Probenecid was added to a final concentration of 5 mM; • iii. […] were vortexed vigorously for 1-2 minutes. • 5. Medium was removed from the cell plate by flicking the cell plate on paper towels. • 6. 10 μl of assay buffer and 10 μl of 2× dye solution was added to each well of the cell plate. • 7. The cell plate was shaken on a plate shaker at 600 rpm for 2 minutes and incubated at 37° C. for 2 hours followed by an additional 15-minute incubation at 25° C. • 8. The test compounds were next prepared in assay buffer: • a. All compounds were diluted to the required concentration with DMSO and added to a 384-well compound plate; • b. All compounds were serially diluted; • 1. Starting with 10 mM concentration of each test compound, all samples were serially diluted in 3-fold dilutions. • 2. 90 nl/well of each compound was transferred from the source plate to a 384-well compound plate using an Echo liquid handler. • 3. 30 μl/well assay buffer was added to the compound plate; • c. The plates were mixed on a plate shaker for 2 mins; • 9. The cell plate, compound plate and pipette tips were placed in the FLIPR screening system and 10 μl of each compound was added to a well of the cell plate. • 10. Plates were read for 160 sec with 1 sec intervals to obtain the data in agonist mode, then kept at 25° C. in the dark for 30 min. • 11.

[3] = biological target: human muscarinic receptor M3 (Homo sapiens, UniProt P20309); assay: cell-based
Experimental: as §2

[4] = biological target: T2, human M4 receptor (Homo sapiens, UniProt P08173); assay: Calcium flux assay (FLIPR), CHO cells transiently transfected with human M4; format: cell-based; details: agonist mode
T2 construct: expressed in transfected cells; host or cells: CHO (transient transfection)
Experimental: All cells used in the following experiments were clonal populations of Chinese Hamster Ovary (CHO) cells stably expressing the corresponding human muscarinic receptor, except for the M4 cell line, which was a population of CHO cells transiently transfected with the human M4 receptor. […] The procedure was as follows: • 1. Cells were thawed and cultured in cell culture medium (DMEM/F12 containing 10% FBS, 1× penicillin-streptomycin and 600 μg/ml hygromycin B) at 37° C. in 5% (v/v) CO2. • 2. One day before the assays, cells were detached using TrypLE™ and counted using a cell-counter. […] 12,000 cells/well were seeded in 30 μl/well culture medium in a 384-well cell plate and incubated overnight at 37C, 5% (v/v) CO2. • 4. On the assay day, 2× dye solution was prepared following the manual of the FLIPR® Calcium 6 Assay Kit: • i. The dye was diluted with assay buffer (20 mM HEPES in 1× HBSS, PH 7.4); • ii. Probenecid was added to a final concentration of 5 mM; • iii. Cells were vortexed vigorously for 1-2 minutes. • 5. Medium was removed from the cell plate by flicking the cell plate on paper towels. • 6. 10 μl of assay buffer and 10 μl of 2× dye solution was added to each well of the cell plate. • 7. […] Plates were read for 160 sec with 1 sec intervals to obtain the data in agonist mode, then kept at 25° C. in the dark for 30 min. • 11.

[5] = biological target: T3, human muscarinic receptor M2 (Homo sapiens, UniProt P08172); assay: Calcium flux assay (FLIPR), CHO cells expressing human M2; format: cell-based; details: agonist mode
T3 construct: expressed in transfected cells
Experimental: as §1

[6] = test system: Cerep87 Safety Panel receptors; assay: Cerep87 Safety Panel (Eurofins), whole panel statements; format: binding; details: all receptors of the Cerep87 panel
[7] = test system: tear production; assay: THP-induced dry eye in dogs: tear production; format: in vivo, Beagles; details: oral, 2 mpk alone, 4 hours post administration
[8] = test system: dizziness; details: humans; 3 mg THP immediate release at 0, 2, 4 hours versus 9 mg at once
Experimental: Experimental Design: All of the data collected in this example were run in a double-blind, randomized, placebo controlled setting of normal healthy adults. […] Dizziness was measured by the visual analog scale (VAS), a common clinical measure of dizziness.

T1 sequence (P08912 whole entry): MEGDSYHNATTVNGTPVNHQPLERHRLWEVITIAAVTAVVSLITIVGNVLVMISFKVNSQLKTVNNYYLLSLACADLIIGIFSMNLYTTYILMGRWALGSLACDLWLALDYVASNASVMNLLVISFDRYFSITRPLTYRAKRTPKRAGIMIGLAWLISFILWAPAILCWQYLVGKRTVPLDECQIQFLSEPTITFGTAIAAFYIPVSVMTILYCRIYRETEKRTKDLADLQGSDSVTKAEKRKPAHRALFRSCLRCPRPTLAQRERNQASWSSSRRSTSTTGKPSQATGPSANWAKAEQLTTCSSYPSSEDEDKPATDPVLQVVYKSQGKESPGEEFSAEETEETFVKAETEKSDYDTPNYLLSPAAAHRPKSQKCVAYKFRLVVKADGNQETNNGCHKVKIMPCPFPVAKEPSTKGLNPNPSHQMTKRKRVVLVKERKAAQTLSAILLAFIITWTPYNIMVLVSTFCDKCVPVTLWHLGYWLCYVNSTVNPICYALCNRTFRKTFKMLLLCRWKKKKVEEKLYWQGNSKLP
T3 sequence (P08172 whole entry): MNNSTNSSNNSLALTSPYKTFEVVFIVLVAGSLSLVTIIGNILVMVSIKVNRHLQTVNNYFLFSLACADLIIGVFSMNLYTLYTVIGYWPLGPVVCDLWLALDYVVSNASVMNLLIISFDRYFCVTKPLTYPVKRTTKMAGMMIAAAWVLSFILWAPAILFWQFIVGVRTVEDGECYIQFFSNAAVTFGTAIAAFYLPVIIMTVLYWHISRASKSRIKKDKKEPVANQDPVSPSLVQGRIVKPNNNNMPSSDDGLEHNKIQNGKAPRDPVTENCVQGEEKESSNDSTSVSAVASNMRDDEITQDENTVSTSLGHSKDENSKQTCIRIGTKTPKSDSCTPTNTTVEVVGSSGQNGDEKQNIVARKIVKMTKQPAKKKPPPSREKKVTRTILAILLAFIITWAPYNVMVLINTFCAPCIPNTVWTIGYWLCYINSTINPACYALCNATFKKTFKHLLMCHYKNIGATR
human muscarinic receptor M3, sequence (P20309 whole entry): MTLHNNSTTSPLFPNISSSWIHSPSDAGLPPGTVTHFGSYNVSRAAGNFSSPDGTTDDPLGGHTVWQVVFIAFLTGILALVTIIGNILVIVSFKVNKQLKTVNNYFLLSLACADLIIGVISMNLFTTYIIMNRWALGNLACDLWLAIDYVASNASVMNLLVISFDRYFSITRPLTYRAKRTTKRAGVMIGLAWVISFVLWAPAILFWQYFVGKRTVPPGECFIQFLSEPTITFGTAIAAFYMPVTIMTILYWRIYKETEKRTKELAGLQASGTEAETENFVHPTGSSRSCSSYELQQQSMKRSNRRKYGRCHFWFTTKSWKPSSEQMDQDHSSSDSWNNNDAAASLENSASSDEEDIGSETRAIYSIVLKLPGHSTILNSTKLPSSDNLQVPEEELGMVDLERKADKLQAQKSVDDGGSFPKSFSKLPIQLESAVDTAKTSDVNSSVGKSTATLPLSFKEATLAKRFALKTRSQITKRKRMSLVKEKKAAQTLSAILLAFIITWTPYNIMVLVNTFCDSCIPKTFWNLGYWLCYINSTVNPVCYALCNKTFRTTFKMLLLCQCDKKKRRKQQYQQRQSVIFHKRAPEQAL
human muscarinic receptor M1, sequence (P11229 whole entry): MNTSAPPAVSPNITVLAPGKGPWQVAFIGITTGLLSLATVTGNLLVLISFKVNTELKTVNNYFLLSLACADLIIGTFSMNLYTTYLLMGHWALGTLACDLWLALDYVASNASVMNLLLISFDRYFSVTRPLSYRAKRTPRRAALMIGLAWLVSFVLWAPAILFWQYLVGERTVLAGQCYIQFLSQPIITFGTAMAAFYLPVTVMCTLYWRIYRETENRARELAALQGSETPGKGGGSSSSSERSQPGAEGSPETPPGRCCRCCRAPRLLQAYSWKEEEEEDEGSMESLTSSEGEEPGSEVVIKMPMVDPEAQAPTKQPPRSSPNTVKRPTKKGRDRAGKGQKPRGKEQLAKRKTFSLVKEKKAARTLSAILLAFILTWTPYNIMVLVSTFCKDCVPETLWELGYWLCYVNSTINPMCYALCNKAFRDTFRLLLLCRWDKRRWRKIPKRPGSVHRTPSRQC
T2 sequence (P08173 whole entry): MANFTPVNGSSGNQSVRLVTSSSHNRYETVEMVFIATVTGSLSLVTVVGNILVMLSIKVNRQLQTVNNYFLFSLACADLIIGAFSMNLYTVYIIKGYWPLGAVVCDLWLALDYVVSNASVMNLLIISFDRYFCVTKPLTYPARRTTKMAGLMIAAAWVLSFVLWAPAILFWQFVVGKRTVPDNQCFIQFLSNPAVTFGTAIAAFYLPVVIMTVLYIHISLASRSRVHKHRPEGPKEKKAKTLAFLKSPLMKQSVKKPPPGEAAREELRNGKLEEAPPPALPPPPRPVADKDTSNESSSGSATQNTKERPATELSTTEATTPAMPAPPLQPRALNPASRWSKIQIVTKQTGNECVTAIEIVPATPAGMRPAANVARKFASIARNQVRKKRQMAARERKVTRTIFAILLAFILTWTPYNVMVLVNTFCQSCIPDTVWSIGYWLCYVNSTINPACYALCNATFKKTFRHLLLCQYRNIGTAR

Question: Which EC50 [1] does the source give for `C[C@H](C[N+](C)(C)C)OC(N)=O.[Cl-]` [(R)-BTC, (R)-bethanechol, reference compound] here?
Answer: Its EC50 is greater than 10 µM.

Question: What about the EC50 [2] of the same compound?
Answer: The EC50 was greater than 10 µM.

Question: What about the EC50 [3] of the same compound?
Answer: The EC50 was 7.57 µM.

Question: What about the EC50 [4] of the same compound?
Answer: Its EC50 is greater than 10 µM.

Question: And the EC50 [5]?
Answer: The EC50 was greater than 10 µM.

Question: What about the “signal at any receptor of the panel” value [6] of the same compound?
Answer: The value was less than 50%.

Question: How did the “% Baseline tear production” value [7] turn out when `OC(CCN1CCCCC1)(c1ccccc1)C1CCCCC1` (centres unmarked) [THP, trihexyphenidyl] was run?
Answer: Its value is 89.1%.

Question: What about the “dizziness (VAS)” value [8] of the same compound?
Answer: Its value is “significantly reduced dizziness”.
